Measurements from patent US7803793B2, “Heterocyclic derived metalloprotease inhibitors” (Janssen Pharmaceutica NV, priority 2006, dated 2010).
Like-named read-outs stand apart in the source and are kept apart here.

Tests used:
[1] = biological target: T1, MMP-9 (Homo sapiens, UniProt P14780); experiment: MMP enzymatic assay (Trupoint peptide), MMP-9; type: biochemical
T1 construct: Human MMP-9 catalytic domain (aa 107-446)
Description: [formula] • 1) Prepare appropriate 1×MMP assay buffer from 10× stock. […] The plate setup should be as follows, using GM6001 as plate reference compound:
• 6) Serially dilute 10 μl down the plate to achieve 1:3 dilutions in subsequent wells. After each dilution, change pipette tips to avoid compound carryover. […] Will need 10 ml enzyme solution per plate. Add enzyme to plate, 20 μl per well. Incubate 1 hr.
Prepare 5 ml total per plate. Add 10 ul of substrate to each well to achieve a final concentration of 100 nM in well. […] Read in plate reader.
(§1) Analysis Specifications • Calculate average background value from substrate/assay buffer wells • Subtract this from entire plate • Calculate average of DMSO wells for each enzyme. This is the positive control, 100% value. • For each well, calculate percent of control by dividing well value by the average DMSO value obtained above. • Paste percent of control values into Graphpad Prism 4.0.

[2] = biological target: T2, MMP-2 (Homo sapiens, UniProt P08253); experiment: MMP enzymatic assay (Trupoint peptide), MMP-2; type: biochemical
T2 construct: Human MMP-2 full length (aa 1-660)
T2 sequence (P08253 30-660): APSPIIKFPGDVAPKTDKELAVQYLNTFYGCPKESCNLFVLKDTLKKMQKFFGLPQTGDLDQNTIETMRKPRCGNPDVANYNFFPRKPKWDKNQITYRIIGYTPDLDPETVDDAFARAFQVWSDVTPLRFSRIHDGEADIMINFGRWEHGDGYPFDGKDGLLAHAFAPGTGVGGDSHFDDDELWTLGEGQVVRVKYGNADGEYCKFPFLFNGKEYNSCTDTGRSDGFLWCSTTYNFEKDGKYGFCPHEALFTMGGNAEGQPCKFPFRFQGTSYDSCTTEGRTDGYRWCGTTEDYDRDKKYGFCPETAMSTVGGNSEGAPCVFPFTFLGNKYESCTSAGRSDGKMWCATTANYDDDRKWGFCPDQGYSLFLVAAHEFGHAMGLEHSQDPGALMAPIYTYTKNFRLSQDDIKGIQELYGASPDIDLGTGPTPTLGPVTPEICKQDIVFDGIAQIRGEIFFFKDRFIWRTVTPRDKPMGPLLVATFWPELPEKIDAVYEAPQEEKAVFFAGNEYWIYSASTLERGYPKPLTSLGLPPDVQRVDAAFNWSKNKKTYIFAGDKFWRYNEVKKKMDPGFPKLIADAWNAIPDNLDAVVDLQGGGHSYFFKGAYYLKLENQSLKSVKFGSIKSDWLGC
Description: [formula] • 1) Prepare appropriate 1×MMP assay buffer from 10× stock. […] Need to prepare a 2.5× concentration stock (2.5 μM) to achieve this concentration in 50 μl. Dilute compound to 2.5 mM in 100% DMSO (a 1:40 dilution), then dilute the 2.5 mM compound to 2.5 μM (1:1000) into 1× assay buffer. Make 1 ml 2.5 μM compound in assay buffer. • 4) Fill the rows B through P of a 384-well plate with assay buffer+0.1% DMSO. • 5) Add 30 ul of the 2.5 μM compound in assay buffer to the top row of the plate, doing each compound in triplicate. The plate setup should be as follows, using GM6001 as plate reference compound:
• 6) Serially dilute 10 μl down the plate to achieve 1:3 dilutions in subsequent wells. After each dilution, change pipette tips to avoid compound carryover. Discard the remaining 10 μl after diluting into the final row. • 7) Prepare enzyme dilutions at 2.5× of final desired concentration (see below). Will need 10 ml enzyme solution per plate. Add enzyme to plate, 20 μl per well. Incubate 1 hr.
• 8) Dilute the 500 μM Trupoint peptide 1:1000 into assay buffer to achieve a 5× working stock of 500 nM. Prepare 5 ml total per plate. Add 10 ul of substrate to each well to achieve a final concentration of 100 nM in well. Also prepare background subtraction wells by adding 10 μl 5× substrate to 40 μl assay buffer per well, typically do ˜32 wells. • 9) Incubate assay at room temperature for 15 min. Read in plate reader.
as §1

T1 sequence (P14780 107-446): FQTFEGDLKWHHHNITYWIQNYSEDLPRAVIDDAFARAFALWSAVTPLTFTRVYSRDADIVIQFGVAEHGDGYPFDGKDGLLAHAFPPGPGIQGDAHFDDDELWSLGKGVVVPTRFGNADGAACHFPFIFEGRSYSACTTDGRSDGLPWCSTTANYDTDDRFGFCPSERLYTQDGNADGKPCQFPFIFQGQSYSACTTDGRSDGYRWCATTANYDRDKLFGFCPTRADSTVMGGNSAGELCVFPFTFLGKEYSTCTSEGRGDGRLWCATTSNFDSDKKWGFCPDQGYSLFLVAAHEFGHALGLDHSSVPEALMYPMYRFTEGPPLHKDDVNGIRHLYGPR

## O=C1[C@H](NS(=O)(=O)c2ccc(Oc3ccccn3)cc2)CC=CCN1O [Compound 8, N-(1-Hydroxy-2-oxo-2,3,4,7-tetrahydro-1H-azepin-3-(R)-yl)-4-(pyridin-2-yloxy)-benzenesulfonamide]
[1]
  IC50: 22.9 nM
[2]
  IC50: 15.1 nM

## COc1ccc(-c2ccc(S(=O)(=O)Cn3cccc(O)c3=O)s2)cc1 [Compound 64, 3-Hydroxy-1-[5-(4-methoxy-phenyl)-thiophene-2-sulfonylmethyl]-1H-pyridin-2-one]
[1]
  IC50: 522 nM
[2]; read-out: MMP-2 nM IC50
  IC50: 185 nM

## CN(c1cccn(O)c1=O)S(=O)(=O)c1ccc(Oc2ccc(Cl)cc2)cc1 [Compound 28, 4-(4-Chloro-phenoxy)-N-(1-hydroxy-2-oxo-1,2-dihydro-pyridin-3-yl)-N-methyl-benzenesulfonamide]
[1]
  IC50: 3.28 nM
[2]
  IC50: 6.9 nM

## Cc1ccc(Oc2ccc(N(Cc3cc(C)cn(O)c3=O)S(C)(=O)=O)cc2)cc1 [Compound 51, N-(1-Hydroxy-5-methyl-2-oxo-1,2-dihydro-pyridin-3-ylmethyl)-N-(4-p-tolyloxy-phenyl)-methanesulfonamide]
[1]
  IC50: 43.9 nM
[2]
  IC50: 241 nM

## O=S(=O)(c1ccc(Oc2ccccc2)cc1)N(Cc1ccccc1)c1cccn(O)c1=S [Compound 23, N-Benzyl-N-(1-hydroxy-2-thioxo-1,2-dihydro-pyridin-3-yl)-4-phenoxy-benzene-sulfonamide]
[1]
  IC50: 693 nM
[2]; read-out: MMP-2 nM IC50
  IC50: 4590 nM

## Cc1ccc(-c2ccc(S(=O)(=O)C3CCCCN(O)C3=O)cc2)cc1 (centres unmarked) [Compound 86, 1-Hydroxy-3-(4′-methyl-biphenyl-4-sulfonyl)-azepan-2-one]
[1]
  IC50: > 1000 nM
[2]
  IC50: > 1000 nM

## Cc1ccc(Oc2ccc(N(Cc3cc(Br)cn(O)c3=O)S(C)(=O)=O)cc2)cc1 [Compound 49, N-(5-Bromo-1-hydroxy-2-oxo-1,2-dihydro-pyridin-3-ylmethyl)-N-(4-p-tolyloxy-phenyl)-methanesulfonamide]
[1]
  IC50: 116 nM
[2]
  IC50: 547 nM

## CC(C)CN(c1cccn(O)c1=O)S(=O)(=O)c1ccc(Oc2ccccc2)cc1 [Compound 24, N-(1-Hydroxy-2-oxo-1,2-dihydro-pyridin-3-yl)-N-isobutyl-4-phenoxy-benzenesulfonamide]
[1]
  IC50: 57.5 nM
[2]
  IC50: 41 nM

## CS(=O)(=O)N(Cc1cccn(O)c1=O)c1ccc(Oc2ccc(OC(F)(F)F)cc2)cc1 [Compound 54, N-(1-Hydroxy-2-oxo-1,2-dihydro-pyridin-3-ylmethyl)-N-[4-(4-trifluoro-methoxy-phenoxy)-phenyl]-methanesulfonamide]
[1]
  IC50: 11.1 nM
[2]
  IC50: 466 nM

## COc1ccc(S(=O)(=O)Cc2cccn(O)c2=O)cc1 [Compound 96]
[1]
  IC50: > 1000 nM
[2]
  IC50: > 1000 nM

## O=C1C(S(=O)(=O)c2ccc(-c3ccc(F)cc3)cc2)CCCCN1O (centres unmarked) [Compound 95]
[1]
  IC50: 1190 nM
[2]
  IC50: 584 nM

## Cc1ccc(Oc2ccc(N(Cc3cc(-c4ccccc4)cn(O)c3=O)S(C)(=O)=O)cc2)cc1 [Compound 52, N-(1-Hydroxy-2-oxo-5-phenyl-1,2-dihydro-pyridin-3-ylmethyl)-N-(4-p-tolyloxy-phenyl)-methanesulfonamide]
[1]
  IC50: 317 nM
[2]
  IC50: 914 nM

## O=C1[C@H](NS(=O)(=O)c2ccc(Oc3ccncc3)cc2)CC=CCN1O [Compound 6, N-(1-Hydroxy-2-oxo-2,3,4,7-tetrahydro-1H-azepin-3-(R)-yl)-4-(pyridin-4-yloxy)-benzenesulfonamide]
[1]
  IC50: 15.9 nM
[2]
  IC50: 2.67 nM

## N#Cc1ccc2[nH]c(-c3ccc(S(=O)(=O)C4CCCCN(O)C4=O)cc3)nc2c1 (centres unmarked) [Compound 76, 2-[4-(1-Hydroxy-2-oxo-azepane-3-sulfonyl)-phenyl]-1H-benzimidazole-5-carbonitrile]
[1]
  IC50: > 1000 nM
[2]
  IC50: > 1000 nM

## O=C1C(S(=O)(=O)c2ccc(F)cc2)CCCCN1O (centres unmarked) [Compound 79, 3-(4-Fluoro-benzenesulfonyl)-1-hydroxy-azepan-2-one]
[1]
  IC50: > 1000 nM
[2]
  IC50: > 1000 nM

## CCCCc1ccc(N(Cc2cccn(O)c2=O)S(C)(=O)=O)cc1 [Compound 45, N-(4-Butyl-phenyl)-N-(1-hydroxy-2-oxo-1,2-dihydro-pyridin-3-ylmethyl)-methane-sulfonamide]
[1]
  IC50: > 1000 nM
[2]
  IC50: > 1000 nM

## CN1CCN(CCN(c2cccn(O)c2=O)S(=O)(=O)c2ccc(Oc3ccc(Cl)cc3)cc2)CC1 [Compound 99]
[1]
  IC50: 1.3 nM
[2]; read-out: MMP-2 nM IC50
  IC50: 1.7 nM

## O=C1[C@H](NS(=O)(=O)c2ccc(Oc3ncc(C(F)(F)F)cc3Cl)cc2)CC=CCN1O [Compound 7, 4-(3-Chloro-5-trifluoromethyl-pyridin-2-yloxy)-N-(1-hydroxy-2-oxo-2,3,4,7-tetrahydro-1H-azepin-3-(R)-yl)-benzenesulfonamide]
[1]
  IC50: > 1000 nM
[2]
  IC50: > 1000 nM

## O=c1c(N(CCN2CCSCC2)S(=O)(=O)c2ccc(Oc3ccc(Cl)cc3)cc2)cccn1O [Compound 98]
[1]
  IC50: 4.9 nM
[2]; read-out: MMP-2 nM IC50
  IC50: 6.1 nM

## O=C1[C@H](N(CCN2CCOCC2)S(=O)(=O)c2ccc(Oc3ccc(Cl)cc3)cc2)CC=CCN1O [Compound 11, 4-(4-Chloro-phenoxy)-N-(1-hydroxy-2-oxo-2,3,4,7-tetrahydro-1H-azepin-3-(R)-yl)-N-(2-morpholin-4-yl-ethyl)-benzenesulfonamide]
[1]
  IC50: 0.2 nM
[2]
  IC50: 0.31 nM

## O=C1[C@H](N(CCN2CCCCC2)S(=O)(=O)c2ccc(Oc3ccc(Cl)cc3)cc2)CC=CCN1O [Compound 13, 4-(4-Chloro-phenoxy)-N-(1-hydroxy-2-oxo-2,3,4,7-tetrahydro-1H-azepin-3-(R)-yl)-N-(2-piperidin-1-yl-ethyl)-benzenesulfonamide]
[1]
  IC50: 0.21 nM
[2]
  IC50: 0.55 nM

## O=c1c(N(Cc2ccccc2)S(=O)(=O)c2ccc(Oc3ccccc3)cc2)cccn1O [Compound 22, N-Benzyl-N-(1-hydroxy-2-oxo-1,2-dihydro-pyridin-3-yl)-4-phenoxy-benzene-sulfonamide]
[1]
  IC50: 33.4 nM
[2]; read-out: MMP-2 nM IC50
  IC50: 22.4 nM

## O=C1C(N(CCN2CCOCC2)S(=O)(=O)c2ccc(-c3ccc(Cl)cc3)s2)CC=CCN1O (centres unmarked) [Compound 93]
[1]
  IC50: 17.2 nM
[2]
  IC50: 16.4 nM

## Cc1ccc(C#Cc2ccc(N(Cc3cccn(O)c3=S)S(C)(=O)=O)cc2)cc1 [Compound 56, N-(1-Hydroxy-2-thioxo-1,2-dihydro-pyridin-3-ylmethyl)-N-(4-p-tolylethynyl-phenyl)-methanesulfonamide]
[1]
  IC50: > 10000 nM
[2]
  IC50: > 10000 nM

## COc1ccc(Oc2ccc(N(Cc3cccn(O)c3=O)S(C)(=O)=O)cc2)cc1 [Compound 53, N-(1-Hydroxy-2-oxo-1,2-dihydro-pyridin-3-ylmethyl)-N-[4-(4-methoxy-phenoxy)-phenyl]-methanesulfonamide]
[1]
  IC50: 14.7 nM
[2]
  IC50: 184 nM

## COc1ccc(Oc2ccc(S(=O)(=O)C3CCCCN(O)C3=O)cc2)cc1 (centres unmarked) [Compound 70, 1-Hydroxy-3-[4-(4-methoxy-phenoxy)-benzenesulfonyl]-azepan-2-one]
[1]
  IC50: 31 nM
[2]; read-out: MMP-2 nM IC50
  IC50: 95.9 nM

## COc1ccc2[nH]c(-c3ccc(S(=O)(=O)C4CCCCN(O)C4=O)cc3)nc2c1 (centres unmarked) [Compound 77, 1-Hydroxy-3-[4-(5-methoxy-1H-benzoimidazol-2-yl)-benzenesulfonyl]-azepan-2-one]
[1]
  IC50: > 1000 nM
[2]
  IC50: > 1000 nM

## O=C1C(S(=O)(=O)c2ccc(Br)cc2)CCCCN1O (centres unmarked) [Compound 81, 3-(4-Bromo-benzenesulfonyl)-1-hydroxy-azepan-2-one]
[1]
  IC50: > 1000 nM
[2]
  IC50: > 1000 nM
